PubChem BioAssay (NCI)
Values joined by “and” are separate entries in the source; they are usually repeats but may differ in a detail not shown here. Identical values can stand only once.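 Grown in 96-well plates, cells were treated for 48 hours with each compound at five concentrations. Insufficient inhibition: endpoint recorded as highest concentration tested. Abbreviation: GI50, concentration required for 50% inhibition of growth. At the TGI there is no net growth.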

Experiments:
Assay in all cases: growth of human tumour cells (NCI), 48 h
786-0 renal = test system: 786-0 renal
ACHN renal = test system: ACHN renal
BT-549 breast = test system: BT-549 breast
HT29 colon = test system: HT29 colon
MDA-MB-435 = test system: MDA-MB-435
MDA-N = test system: MDA-N
NCI-H23 lung = test system: NCI-H23 lung
NCI-H460 lung = test system: NCI-H460 lung
TK-10 renal = test system: TK-10 renal

| SMILES | TGI (786-0 renal) | TGI (ACHN renal) [µM] | TGI (BT-549 breast) | TGI (HT29 colon) | TGI (MDA-MB-435) | TGI (MDA-N) [µM] | TGI (NCI-H23 lung) | TGI (NCI-H460 lung) | TGI (TK-10 renal) | GI50 (786-0 renal) [µM] | GI50 (BT-549 breast) [µM] | GI50 (HT29 colon) [µM] | GI50 (MDA-MB-435) [µM] | GI50 (NCI-H23 lung) [µM] | GI50 (NCI-H460 lung) [µM] | GI50 (TK-10 renal) [µM] | GI50 (ACHN renal) [µM] | GI50 (MDA-N) [µM] |
| --- | --- | --- | --- | --- | --- | --- | --- | --- | --- | --- | --- | --- | --- | --- | --- | --- | --- | --- |
| C/C(=N\NS(=O)(=O)c1ccc(C)cc1)P(=O)(O)O | > 100 µM | > 100 | > 100 µM | > 100 µM | > 100 µM | > 100 | > 100 µM | > 100 µM | > 100 µM | – | – | – | – | – | – | – | – | – |
| CC(C)=CCC/C(C)=C/CC/C(C)=C/CSc1ccccc1C(=O)O | 78.9 µM and 32.1 µM | > 100 | 40.4 µM and 32.2 µM | > 78.5 µM and 38.1 µM | 73.6 µM and 55.5 µM | 57.8 | 61.4 µM and 36.3 µM | 42 µM and 33.1 µM | > 92.3 µM and 99.1 µM | 23.1 | 19.4 | 33.5 | 27.4 | 23.6 | 20.9 | 36.4 | – | – |
| COc1ccc2ccccc2c1C1NC(=O)c2ccccc2N1 (stereo not drawn) | > 38 µM | > 84.5 | > 100 µM | – | 0.461 µM | 0.413 | > 100 µM | 29.6 µM | > 100 µM | – | – | – | – | – | – | – | – | – |
| C/C1=C/C(=O)O[C@@H]2C[C@@H](CC[C@H](C)/C=C\C=C\CC1)O[C@@](O)([C@@H]1CSC(=O)N1)C2 | > 10 µM | > 10 | > 2.59 µM | > 10 µM | > 2.24 µM | > 10 | > 10 µM | > 10 µM | 1.01 µM | – | – | – | – | – | – | – | – | – |
| CN(C)CCNC(=O)c1cccc(N(C)C(=O)c2ccccc2)c1[N+](=O)[O-] | > 100 µM | > 100 | > 100 µM | > 100 µM | > 100 µM | > 100 | > 100 µM | > 100 µM | > 100 µM | – | – | – | – | – | – | – | – | – |
| CC(=O)OC(C)(C)/C(C)=C/C(=O)O[C@H]1C(=O)O[C@@H]2C[C@H]3[C@H](C)C(=O)C(O[C@@H]4O[C@H](CO)[C@@H](O)[C@H](O)[C@H]4O)=C[C@]3(C)[C@H]3[C@@H](O)[C@H](O)[C@@]4(C(=O)O)OC[C@]32[C@@H]14 | > 100 µM | > 100 | – | > 100 µM | > 100 µM | > 100 | > 100 µM | > 100 µM | > 100 µM | > 100 | – | > 100 | > 100 | > 100 | 39.5 | > 100 | > 100 | > 100 |
| Nc1nc2c(ncn2C2C=CC(CO)C2)c(=O)[nH]1 (stereo not drawn) | > 100 µM | > 100 | > 100 µM | > 100 µM | > 100 µM | > 100 | > 100 µM | > 100 µM | > 100 µM | – | – | – | – | – | – | – | – | – |
| Nc1nnnn1CCO | > 100 µM | > 100 | > 100 µM | > 100 µM | > 100 µM | > 100 | > 100 µM | > 100 µM | > 100 µM | – | – | – | – | – | – | – | – | – |
| Cc1nnc(-c2cccc(-c3ccc(C(=O)NCC4CC4)cc3)c2)o1 | > 25 µM | > 25 | > 25 µM | > 25 µM | > 25 µM | – | > 25 µM | > 25 µM | > 25 µM | > 25 | > 25 | > 25 | > 25 | > 25 | > 25 | > 25 | > 25 | – |
| O=C(Nc1ccncc1)C(=O)c1cn(S(=O)(=O)c2ccc(Cl)cc2)c2ccccc12 | 45.2 µM | > 59.6 | > 80.5 µM | > 32.4 µM | 0.521 µM | – | 33.1 µM | > 100 µM | 38.4 µM | 3.5 | 3.75 | 0.397 | 0.106 | 0.425 | 11.5 | 11.5 | 3.49 | – |
| CC1CCCC(C(O)CC2CC(=O)NC(=O)C2)C1O (stereo not drawn) | > 100 µM | > 100 | > 100 µM | > 100 µM | > 100 µM | > 100 | > 100 µM | > 100 µM | > 100 µM | – | – | – | – | – | – | – | – | – |
| CC(C)=CCC[C@](C)(O)[C@H]1CC[C@]2(C)[C@@H]1CC[C@@H]1[C@@]3(C)CC/C(=N/O)C(C)(C)[C@@H]3CC[C@]12C | 69.3 µM | 35.7 | > 100 µM | 20.8 µM | > 100 µM | – | 41.7 µM | > 100 µM | 63.5 µM | 14.3 | 27.4 | 3.41 | 21.4 | 8.68 | 5.54 | 18 | 11.6 | – |
| O=C(Cc1ccc(F)c(F)c1)Nc1cc(C2(C(F)(F)F)CC2)nn1Cc1ccccc1 | > 15 µM | 14.2 | > 15 µM | > 15 µM | 11.4 µM | – | 10.9 µM | 7.58 µM | > 15 µM | 4.52 | 3.73 | 3.74 | 3.67 | 3.61 | 3.16 | 4.5 | 3.85 | – |
